Results on one substance are retold here after patent EP0066415A2, “N-(arylthioalkyl)-N'-(aminoalkyl)ureas” (A.H. ROBINS COMPANY, INCORPORATED, priority 1981, dated 1982).

For assay [1], the system named is Ouabain Induced Arrhythmias. The assay can be described thus: Ouabain induced arrhythmias, correction by i.v. infusion. The format is in vivo, adult mongrel dogs. Particulars: Ouabain-Induced arrhythmia, dogs under barbiturate anesthesia, infusion into femoral vein at 1 mg/kg/min. On the procedure: correction of existing cardiac arrhythmias of ventri- cular origin was carried out on (1) adult mongrel dogs which were under barbiturate anesthesia during the test. A Grass Model 7 polygraph was used for recording femoral arterial blood pressure (Statham P23AC transducer) and the electrocardiogram (Grass 7P4 preamplifier). Ouabain was given intravenously in an initial dose of 40 µg/kg and in a second dose of […] 30 minutes after the first dose and in subsequent doses of 10 µg/kg which were repeated at 1.5 min. intervals as required for producing cardiac arrhythmias that persisted for at least 15 minutes. When the arrhythmias were established, the test compounds were administered by infusion (Harvard Model 942 Infusion Pump) into a femoral vein at a rate of 1 mg/kg/min. Concentration of compound was adjusted according to the weight of the dog to allow a volume infusion of 1 ml/min. The compound was considered to be active as an antiarrhythmic agent if reversion to the sinus rhythm occurred and this was maintained for at least 30 min.

The test system of assay [2] is Coronary Artery Ligation Induced Arrhythmias. The assay can be described thus: Coronary artery ligation induced arrhythmias. Particulars: I.V.; Coronary Artery Ligation Induced arrhythmia; conscious dogs; infusion into saphenous vein at 0.5 mg/kg/min. It counts as in vivo, Adult mongrel dogs. On the procedure:
Adult mongrel dogs which were in the conscious state were used for the test and cardiac arrhythmias were induced by prior (22-24 hr) surgical preparation in which blood flow through a coronary artery was occluded by use of a constrictor device as reported by Smith et al, 1973. A Grass Model 79 polygraph was used for recording the electrocardiogram (Grass 7P4 preamplifier).
The test compound was administered by infusion (Harvard Model 942 Infusion Pump) into a sapheneous vein to one group of dogs at a rate of 0.5 mg/kg/min. Concentration of compound was adjusted according to the weight of the dog to allow a volume of infusion of 0.5 ml/min. The test compound was administered orally by gavage to another group of dogs at dose levels of 10 to 40 mg/kg. The test compound was prepared in distilled water to give a total volume of 20 ml. Following the administration of the test compound, the heart rate, number of ectopic cardiac beats per min, and the percent ectopic beats (ectopic beats/BR X100) were recorded at 15 min. intervals. The compound was considered active if it abolished the ectopic ventricular frequency and caused a return to normal sinus rhythm within 2 hours of administration.

Consider “N'-[2-(Diethylamino)ethyl]-N-(1-methylethyl)-N[2-(phenylsulphonyl)ethyl]urea maleate[1:1] [Example 9]”, for which the “Correcting Dose Range” value was in the range of 4 to 15 mg/kg in assay [1] and 2 to 5 mg/kg in assay [2].
